# Laboratory results from US10407408B2, “Imide derivatives and use thereof as medicine” (MITSUBISHI TANABE PHARMA CORPORATION, priority 2015, dated 2019).
# Columns and labels:
# [1] = tested on: rat monoiodoacetic acid-induced osteoarthritis model; experiment: Suppressive action on joints injury marker COMP in rat monoiodoacetic acid-induced osteoarthritis model; type: in vivo; details: for Joints injury marker COMP suppression rate (%): oral
# Protocol: Experimental Example 3 Suppressive Action on Articular Joints Injury Marker Free of Rat Monoiodoacetic Acid-Induced Osteoarthritis Model
# Monoiodoacetic acid solution (0.3 mg/25 μL) was injected into the right hindpaw knee joint cavity of anesthetized rats (LEW, male, 7-week-old). […] On day 5, cold phosphate buffer (20 μL) was injected into the right hindpaw knee joint cavity of the euthanized rats, and the joint cavity washing was collected. The joints injury marker COMP (Cartilage Oligomeric Matrix Protein) concentration of the joint cavity washing was quantified using a commercially available measurement reagent (Animal COMP ELISA Kit manufactured by Anamer Medical).
# Calculation of Joints Injury Marker COMP Suppression Rate
# The COMP suppression rate of the test compound was calculated from the following formula: % suppression=100−((Test−Min)/(Max−Min)×100) wherein Max is a COMP concentration of the joint cavity washing of the pathology group administered with a monoiodoacetic acid solution (oral administration of solvent alone), Min is a COMP concentration of the joint cavity washing of the non-treatment normal group (oral administration of solvent alone), and Test is a COMP concentration of the joint cavity washing of the test compound administration group.
# [2] = tested on: proMMP-9 production by human TNFα stimulated THP-1 cell; experiment: Action on proMMP-9 production by human TNFα stimulated THP-1 cell (ELISA of culture supernatant); type: cell-based; details: THP-1 cells, human TNFα 10 ng/mL, 24 hr; IC50 from 3 concentrations (5, 50, 500 or 1, 10, 100 nmol/L); read-out: proMMP-9 suppression rate IC50
# Protocol: Experimental Example 1: Action of Human TNFα Stimulated THP-1 Cell on proMMP-9 Production
# THP-1 cell (human monocytic leukemia cell line) was adjusted to 1×10^7 cells/mL in a culture medium (10% fetal bovine serum/RPMI1640 medium), and dispensed to a 96 well multiplate. This was equilibrated under the conditions of 37° C./5% CO2, and a culture medium containing human TNFα (final concentration 10 ng/mL) and a test compound was dissolved therein. After incubation under the conditions of 37° C./5% CO2 for 24 hr, the culture medium was centrifuged and the culture supernatant was collected, which was subjected to the following measurement.
# Quantification of proMMP-9 in Culture Supernatant
# The proMMP-9 concentration of the collected culture supernatant was quantified using a commercially available measurement reagent (manufactured by GE Healthcare, MMP-9, Human, Biotrak ELISA System).
# Calculation of proMMP-9 Suppression Rate
# The proMMP-9 suppression rate of the test compound was calculated from the following formula: % suppression=100−((Test−Min)/(Max−Min)×100) wherein Max is proMMP-9 concentration of culture supernatant induced by stimulation with human TNFα, without addition of a test compound (added with solvent alone) Min is proMMP-9 concentration of culture supernatant without addition of a test compound (added with solvent alone) and without stimulation with human TNFα, and Test is proMMP-9 concentration of culture supernatant induced by stimulation with human TNFα when a test compound is added.
# Furthermore, the concentration of the test compound necessary for suppressing proMMP-9 production by human TNFα stimulated THP-1 cell by 50% (IC50 value) was calculated from 3 points of proMMP-9 suppression rate at test compound concentrations of 5, 50 and 500 nmol/L or 1, 10 and 100 nmol/L.
# MMP-9 is produced as a precursor proMMP-9 by the stimulated cells, extracellularly activated and expresses the physiological activity as MMP-9. That is, evaluation of the suppression of proMMP-9 produced by the cell means evaluation of the suppression of production of MMP-9. The same applies to MMP-2, and evaluation of the suppression of proMMP-2 produced by the cell means evaluation of the suppression of production of MMP-2.
SMILES,IC50 [2] [nM],further results
"Cc1cnc(N2CCN(C(=O)c3ccc([C@@]4(C(C)C)NC(=O)NC4=O)cc3)CC2)c(C)c1 [Example 8, (R)-5-{4-[4-(3,5-dimethylpyridin-2-yl)piperazine-1-carbonyl]phenyl}-5-isopropylimidazolidine-2,4-dione]",–,"Joints injury marker COMP suppression rate (%) ([1]; rat (LEW), 0.1 mg/kg once per day, joint cavity washing on day 5): 84.3%; superiority in joints injury marker COMP suppression rate compared with Example 571 described in patent document 3 ([1]; rat monoiodoacetic acid model, 0.1 mg/kg versus 3 mg/kg once per day): at least 30 fold"
"Cc1cnc2nc(C3CCN(C(=O)c4ccc([C@@]5(C(C)C)NC(=O)NC5=O)cc4)CC3)sc2c1 [Example 220, (R)-5-isopropyl-5-{4-[4-(6-methylthiazolo[4,5-b]pyridin-2-yl)piperidine-1-carbonyl]phenyl}imidazolidine-2,4-dione]",55,–
"Cc1ccc2nc(C3CCN(C(=O)c4ccc([C@@]5(C(C)C)NC(=O)NC5=O)cc4)CC3)oc2n1 [Example 221, (R)-5-isopropyl-5-{4-[4-(5-methyloxazolo[5,4-b]pyridin-2-yl)piperidine-1-carbonyl]phenyl}imidazolidine-2,4-dione]",72,–
"Cc1ccc2nc(C3CCN(C(=O)c4ccc([C@@]5(C(C)C)NC(=O)NC5=O)cc4)CC3)sc2n1 [Example 222, (R)-5-isopropyl-5-{4-[4-(5-methylthiazolo[5,4-b]pyridin-2-yl)piperidine-1-carbonyl]phenyl}imidazolidine-2,4-dione]",76,–
"CC(C)[C@]1(c2ccc(C(=O)N3CCC(c4nnc(-c5ccccc5)s4)CC3)cc2)NC(=O)NC1=O [Example 227, (R)-5-isopropyl-5-{4-[4-(5-phenyl[1,3,4]thiadiazol-2-yl)piperidine-1-carbonyl]phenyl}imidazolidine-2,4-dione]",84,–
"CC(C)[C@]1(c2ccc(C(=O)N3CCN(c4nc5ccccc5n4C)CC3)cc2)NC(=O)NC1=O [Example 243, (R)-5-isopropyl-5-{4-[4-(l-methyl-1H-benzimidazol-2-yl)piperazine-1-carbonyl]phenyl}imidazolidine-2,4-dione]",27,–
"CC(C)[C@]1(c2ccc(C(=O)N3CCC(c4ncc(-c5ccccc5)s4)CC3)cc2)NC(=O)NC1=O [Example 259, (R)-5-isopropyl-5-{4-[4-(5-phenylthiazol-2-yl)piperidine-1-carbonyl]phenyl}imidazolidine-2,4-dione]",60,–
"CC(C)[C@]1(c2ccc(C(=O)N3CCC(c4nc5cc(C(F)(F)F)ccc5s4)CC3)cc2)NC(=O)NC1=O [Example 262, (R)-5-isopropyl-5-{4-[4-(5-trifluoromethylbenzothiazol-2-yl)piperidine-1-carbonyl]phenyl}imidazolidine-2,4-dione]",13,–
"Cc1ccc2nc(C3CCN(C(=O)c4ccc([C@@]5(C)NC(=O)NC5=O)cc4)CC3)oc2c1 [Example 267, (R)-5-methyl-5-{4-[4-(6-methylbenzoxazol-2-yl)piperidine-1-carbonyl]phenyl}imidazolidine-2,4-dione]",5,–
"Cc1cnc(N2CCN(C(=O)c3ccc(N4C(=O)NC(=O)C4C)cc3)CC2)c(C)c1 (centres unmarked) [Example 450, reference compound]",–,"Joints injury marker COMP suppression rate (%) ([1]; comparison compound of patent document 3 (WO 2011/136292), rat, 1 mg/kg once per day): 14.4%"
"Cc1cnc(N2CCN(C(=O)c3ccc(N4C(=O)NC(=O)C4C(C)C)cc3)CC2)c(C)c1 (centres unmarked) [Example 571, reference compound]",–,"Joints injury marker COMP suppression rate (%) ([1]; comparison compound of patent document 3 (WO 2011/136292), rat, 3 mg/kg once per day): 55.3%"

# Continued, in another order:
IC50 [2] [nM],SMILES,further results
< 5,"Cc1cc(C)c2c(cnn2C2CCN(C(=O)c3ccc([C@@]4(C(C)C)NC(=O)NC4=O)cc3)CC2)c1 [Example 272, (R)-5-{4-[4-(5,7-dimethylindazol-1-yl)piperidine-1-carbonyl]phenyl}-5-isopropylimidazolidine-2,4-dione]",–
< 5,"Cc1cc(F)c2c(C3CCN(C(=O)c4ccc([C@@]5(C)NC(=O)NC5=O)cc4)CC3)n[nH]c2c1 [Example 280, (R)-5-{4-[4-(4-fluoro-6-methyl-1H-indazol-3-yl)piperidine-1-carbonyl]phenyl}-5-methylimidazolidine-2,4-dione]",–
< 1,"Cc1cc(C2CC2)cnc1N1CCN(C(=O)c2ccc(C3(C4CCC4)NC(=O)NC3=O)cc2)CC1 (centres unmarked) [Example 322, 5-cyclobutyl-5-{4-[4-(5-cyclopropyl-3-methylpyridin-2-yl)piperazine-1-carbonyl]phenyl}imidazolidine-2,4-dione]",–
1,"Cc1cnc(N2CCN(C(=O)c3ccc(C4(C(C)(C)C)NC(=O)NC4=O)cn3)CC2)c(C)c1 (centres unmarked) [Example 335, 5-tert-butyl-5-{6-[4-(3,5-dimethylpyridin-2-yl)piperazine-1-carbonyl]pyridin-3-yl}imidazolidine-2,4-dione]",–
< 3,"COCC1(c2ccc(C(=O)N3CCC(c4coc5cc(C)cc(C)c45)CC3)cn2)CC(=O)NC1=O (centres unmarked) [Example 343, 3-{5-[4-(4,6-dimethyl-benzofuran-3-yl)piperidine-1-carbonyl]pyridin-2-yl}-3-methoxymethyl-pyrrolidine-2,5-dione]",–
15,"Cc1ccc2c(C3CCN(C(=O)c4ccc([C@@]5(C)NC(=O)NC5=O)cc4)CC3)c[nH]c2c1 [Example 345, (R)-5-methyl-5-{4-[4-(6-methyl-1H-indol-3-yl)piperidine-1-carbonyl]phenyl}imidazolidine-2,4-dione]",–
88,"Cc1ccc(-c2cnn(C3CCN(C(=O)c4ccc([C@@]5(C)NC(=O)NC5=O)cc4)CC3)c2)cc1 [Example 346, (R)-5-methyl-5-{4-[4-(4-p-toluylpyrazol-1-yl)piperidine-1-carbonyl]phenyl}imidazolidine-2,4-dione]",–
115,"CC(=O)OCN1C(=O)N[C@](C)(c2ccc(C(=O)N3CCC(n4cc5cc(C)cc(C)c5n4)CC3)cc2)C1=O [Example 350, acetic acid (R)-4-{4-[4-(5,7-dimethylindazol-2-yl)piperidine-1-carbonyl]phenyl]-4-methyl-2,5-dioxoimidazolidin-1-ylmethyl ester]",–
